In the PolyMetriX glass transition set one finds glass transition temperature data, which are given here for 49 compounds.

Structures are written as SMILES.

`*/C(C#N)=C/c1cc(/C=C(\C#N)c2ccc3c(c2)C(CCCCCCCC)(CCCCCCCC)c2cc(*)ccc2-3)cc(N(c2ccccc2)c2ccccc2)c1` (repeat unit) came in with a glass transition temperature of 136.00 °C.

The compound `*/C=C/c1cc(OCC(CC)CCCC)c(/C=C/c2ccc3c4ccc(*)cc4n(CC(CC)CCCC)c3c2)cc1OCC(CC)CCCC` (repeat unit) returned a glass transition temperature of 61.00 °C.

`*/C=C/c1cc(OCCCCCCCCCCCCCCCC)c(/C=C/c2ccc(*)cc2)cc1OCCCCCCCCCCCCCCCC` (repeat unit) displayed a glass transition temperature of 33.00 °C.

As to `*/C=C/c1ccc(*)c(-c2c(OCC(CC)CCCC)ccc3cc(-c4ccccc4)ccc23)c1` (repeat unit), the glass transition temperature came out at 141.00 °C.

`*/C=C/c1ccc(*)c(-c2c(OCC(CC)CCCC)ccc3ccccc23)c1` (repeat unit) returned a glass transition temperature of 118.00 °C.

In the case of `*/C=C/c1ccc(*)c(-c2cc(OCCC(C)C)c(OCCC(C)C)cc2-c2ccccc2)c1` (repeat unit), the glass transition temperature came out at 164.00 °C.

Turning to `*/C=C/c1ccc(*)c(OCc2cc(OCCC(C)CCCC(C)C)cc(OCC(CC)CCCC)c2)c1` (repeat unit), the glass transition temperature stood at 227.00 °C.

Take `*/C=C/c1ccc(/C=C/c2ccc3c(c2)C(CCCCCCOc2ccc4ccc(=O)oc4c2)(CCCCCCOc2ccc4ccc(=O)oc4c2)c2cc(*)ccc2-3)cc1` (repeat unit): the glass transition temperature turned out to be 104.00 °C.

`*/C=C/c1ccc(/C=C/c2ccc3c(c2)Sc2cc(*)ccc2N3c2ccc(OCCCCCCCCCCCC)cc2)cc1` (repeat unit): the glass transition temperature turned out to be 167.00 °C.

In turn, `*/C=C/c1ccc2c(c1)C(CCCCCCOc1ccc3ccc(=O)oc3c1)(CCCCCCOc1ccc3ccc(=O)oc3c1)c1cc(/C=C/c3ccc4c(c3)C(CCCCCC)(CCCCCC)c3cc(*)ccc3-4)ccc1-2` (repeat unit) gave a glass transition temperature of 115.00 °C.

As for `*/C=C/c1cccc(/C=C/[Si](C)(C)c2ccc([Si](*)(C)C)cc2)c1` (repeat unit), the glass transition temperature was found to be 38.10 °C.

`*/C=C/c1nc(/C=C/c2ccc3c(c2)c2cc(*)ccc2n3CCCCCC)c(C#N)c(/C=C/c2ccc(N(c3ccccc3)c3ccccc3)cc2)c1C#N` (repeat unit) yielded a glass transition temperature of 134.00 °C.

Compound `*/C=C/c1sc(/C=C/c2ccc3c4ccc(*)cc4n(CC(CC)CCCC)c3c2)c(CC(CC)CCCC)c1CC(CC)CCCC` (repeat unit) returned a glass transition temperature of 60.00 °C.

`*CC(C)(C)C1C(=O)N(CCCC)C(=O)C1*` (repeat unit) gave a glass transition temperature of 80.00 °C.

In turn, `*CC(C)(C)O*` (repeat unit) came in with a glass transition temperature of 40.50 °C.

`*CC(C)(C)S*` (repeat unit) came in with a glass transition temperature of -14.00 °C.

`*CC(CC(*)(C#N)C#N)c1ccc(CCl)cc1` (repeat unit) yielded a glass transition temperature of 180.00 °C.

For `*CC(CC(*)(C#N)C#N)c1ccc(Cl)cc1` (repeat unit), the glass transition temperature came to 180.00 °C.

`*CC(CCCCCCCCCC)O*` (repeat unit) gave a glass transition temperature of -41.00 °C.

In the case of `*CC(CN1C(=O)C2C3C=CC(C3)C2C1=O)O*` (repeat unit), the glass transition temperature was determined as 87.50 °C.

`*CC(COC(C)C)O*` (repeat unit) showed a glass transition temperature of -67.00 °C.

`*CC(COCC=C)S*` (repeat unit) gave a glass transition temperature of -59.00 °C.

`*CC(COCCCCCC)O*` (repeat unit): the glass transition temperature was -85.50 °C.

`*CC(COCCOCCOC)O*` (repeat unit) came in with a glass transition temperature of -57.00 °C.

For the compound `*CC(COCOCC(C)([N+](=O)[O-])[N+](=O)[O-])O*` (repeat unit), the glass transition temperature is -15.00 °C.

Consider `*CC(CS(=O)(=O)CC)O*` (repeat unit), for which the glass transition temperature came out at 57.00 °C.

For `*CC(CS(=O)(=O)CCC)O*` (repeat unit), the glass transition temperature came out at 43.00 °C.

Compound `*CC(CSCCCC)O*` (repeat unit) had a glass transition temperature of -65.00 °C.

With `*CC(CSCCCCC)O*` (repeat unit), the glass transition temperature was -68.00 °C.

Consider `*CC(F)(F)C1(F)CC(C(O)(C(F)(F)F)C(F)(F)F)CC1*` (repeat unit), for which the glass transition temperature came out at 118.00 °C.

Regarding `*CC(O)COc1ccc(C(C)CC(C)(C)c2ccc(O*)cc2)cc1` (repeat unit), the glass transition temperature is 75.00 °C.

The compound `*CC(OC)C(C(=O)O)C(*)C(=O)O` (repeat unit) showed a glass transition temperature of 144.00 °C.

In turn, `*CC(OCC)C(C(=O)OC)C(*)C(=O)OC` (repeat unit) registered a glass transition temperature of 50.00 °C.

With `*CC(OCC)C(C)(C(=O)OC)C(*)(C)C(=O)OC` (repeat unit), the glass transition temperature was 131.00 °C.

Turning to `*CCCCCCCCCCCCCCCCCCCCOC(=O)CC(=O)O*` (repeat unit), the glass transition temperature is -35.10 °C.

Compound `*CCCCCCCCCn1c2ccccc2c2cc(/C=C(\C#N)C(=O)OCCCCCCOC(=O)/C(C#N)=C/c3ccc4c(c3)c3ccccc3n4*)ccc21` (repeat unit) yielded a glass transition temperature of 96.40 °C.

`*CCCCCCNC(=O)CC(=O)N*` (repeat unit): the glass transition temperature was 50.00 °C.

As to `*CCCCCCNC(=O)CCc1ccc(C(C)CC(=O)N*)cc1` (repeat unit), the glass transition temperature is 77.00 °C.

`*CCCCOCCCCOCCCCOC(=O)c1ccc(/N=C/c2cc(OCCC(C)CCCC(C)C)c(/C=N/c3ccc(C(=O)O*)cc3)cc2OCCC(C)CCCC(C)C)cc1` (repeat unit) returned a glass transition temperature of -4.80 °C.

For the compound `*CCOC(=O)CC(C)O*` (repeat unit), the glass transition temperature is -37.10 °C.

`*CCOCCOc1ccc(/C=C(\C)c2ccc(O*)cc2)cc1` (repeat unit) returned a glass transition temperature of 39.00 °C.

For the compound `*Cc1ccc(CNC(=O)CC(C)(C)CC(C)C(=O)N*)cc1` (repeat unit), the glass transition temperature is 125.00 °C.

`*Nc1ccc(NC(=O)Cc2cc(C)c(CC(*)=O)cc2C)cc1` (repeat unit) showed a glass transition temperature of 175.00 °C.

Take `*OC(C)(CC(*)=O)C(F)(F)F` (repeat unit): the glass transition temperature worked out at 27.00 °C.

In the case of `*OC(CCc1ccccc1)CC(*)=O` (repeat unit), the glass transition temperature turned out to be 18.00 °C.

Compound `*Oc1ccc(S(=O)(=O)c2ccc(Oc3ccc(/C=C4\CCCC/C(=C\c5ccc(*)cc5)C4=O)cc3)cc2)cc1` (repeat unit) had a glass transition temperature of 186.00 °C.

Regarding `*Oc1ccc(S(=O)(=O)c2ccc(Oc3ccc(C4(c5ccc(Oc6ccc(S(=O)(=O)c7ccc(Oc8ccc(/C=C9\CC/C(=C\c%10ccc(*)cc%10)C9=O)cc8)cc7)cc6)cc5)CCCC4)cc3)cc2)cc1` (repeat unit), the glass transition temperature is 240.00 °C.

Turning to `*c1cc(C)c(/N=C/c2ccc(OCc3ccc(COc4ccc(/C=N/c5cc(C)c(N6C(=O)c7ccc8c9ccc%10c%11c(ccc(c%12ccc(c7c8%12)C6=O)c%119)C(=O)N(*)C%10=O)cc5C)cc4OC)cc3)c(OC)c2)cc1C` (repeat unit), the glass transition temperature was determined as 145.00 °C.

In turn, `*c1ccc(/C=C/c2cc(OCC(CC)CCCC)c(/C=C/c3ccc(N(*)c4ccccc4)cc3)cc2OC)cc1` (repeat unit) displayed a glass transition temperature of 147.00 °C.
